Test in all cases: Kinase selectivity, DiscoverX scanMAX Kinase assay panel (% control)
Holding throughout (format): binding

For experiment [1], the target named is T1, kinases of the scanMAX Kinase assay panel (Homo sapiens, UniProt Q9BUB5).
T1 construct: purchased DiscoverX Co. (contract measurement) scanMAX Kinase assay panel
As to conditions: MKNK1; 1 uM. A digest of the protocol:
(§1)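 Compounds were tested at 1 uM (in DMSO) against each panel kinase. % control was calculated as (compound − positive control)/(negative control − positive control)×100, where the positive control gives 0% and DMSO gives 100%. Activity toward a kinase was called at % control <35%.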

In experiment [2] the target is T2, kinases of the scanMAX Kinase assay panel (Homo sapiens, UniProt P52333).
T2 construct: purchased DiscoverX Co. (contract measurement) scanMAX Kinase assay panel
T2 sequence (P52333 1-1124): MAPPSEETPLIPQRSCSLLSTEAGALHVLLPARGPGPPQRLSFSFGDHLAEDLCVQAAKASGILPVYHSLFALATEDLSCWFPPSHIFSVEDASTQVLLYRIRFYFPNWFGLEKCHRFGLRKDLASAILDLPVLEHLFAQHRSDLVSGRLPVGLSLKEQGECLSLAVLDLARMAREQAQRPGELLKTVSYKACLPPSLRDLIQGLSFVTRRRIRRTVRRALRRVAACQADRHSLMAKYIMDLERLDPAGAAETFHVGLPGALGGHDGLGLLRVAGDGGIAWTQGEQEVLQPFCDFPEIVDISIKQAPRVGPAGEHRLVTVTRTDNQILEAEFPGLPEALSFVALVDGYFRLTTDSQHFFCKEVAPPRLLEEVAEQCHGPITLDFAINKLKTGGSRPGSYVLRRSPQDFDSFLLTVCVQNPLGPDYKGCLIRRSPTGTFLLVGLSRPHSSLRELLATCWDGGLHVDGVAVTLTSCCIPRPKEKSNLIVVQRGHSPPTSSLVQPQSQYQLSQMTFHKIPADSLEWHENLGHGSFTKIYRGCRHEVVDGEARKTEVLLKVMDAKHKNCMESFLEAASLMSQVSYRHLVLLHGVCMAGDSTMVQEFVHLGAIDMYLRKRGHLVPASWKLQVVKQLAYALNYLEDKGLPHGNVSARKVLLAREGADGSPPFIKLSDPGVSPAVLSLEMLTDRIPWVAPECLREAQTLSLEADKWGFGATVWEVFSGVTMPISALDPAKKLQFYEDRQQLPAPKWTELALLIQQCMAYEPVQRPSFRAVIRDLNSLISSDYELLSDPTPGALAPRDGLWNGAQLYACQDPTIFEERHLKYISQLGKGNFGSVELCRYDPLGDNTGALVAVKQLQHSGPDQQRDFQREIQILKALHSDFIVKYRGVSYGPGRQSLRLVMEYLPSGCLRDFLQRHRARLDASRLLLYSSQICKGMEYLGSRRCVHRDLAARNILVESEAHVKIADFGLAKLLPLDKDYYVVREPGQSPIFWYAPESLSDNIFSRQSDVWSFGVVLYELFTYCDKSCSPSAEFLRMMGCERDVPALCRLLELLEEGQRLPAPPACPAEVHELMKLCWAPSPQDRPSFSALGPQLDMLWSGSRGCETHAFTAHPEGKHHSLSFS
As to conditions: JAK3(JH1domain-catalytic); 1 uM. A digest of the protocol: as §1

Experiment [3] has as its target T3, kinases of the scanMAX Kinase assay panel (Homo sapiens, UniProt Q02779).
T3 construct: purchased DiscoverX Co. (contract measurement) scanMAX Kinase assay panel
As to conditions: MLK2; 1 uM. In outline: as §1

Experiment [4] concerns the target T4, kinases of the scanMAX Kinase assay panel (Homo sapiens, UniProt P04049).
T4 construct: purchased DiscoverX Co. (contract measurement) scanMAX Kinase assay panel
The conditions noted are these: RAF1; 1 uM. A digest of the protocol: as §1

In experiment [5] the target is T5, kinases of the scanMAX Kinase assay panel (Homo sapiens, UniProt Q86V86).
T5 construct: purchased DiscoverX Co. (contract measurement) scanMAX Kinase assay panel
As to conditions: PIM3; 1 uM. In outline: as §1

In experiment [6] the target is T6, kinases of the scanMAX Kinase assay panel (Homo sapiens, UniProt P06213).
T6 construct: purchased DiscoverX Co. (contract measurement) scanMAX Kinase assay panel
As to conditions: INSR; 1 uM. A digest of the protocol:
as §1

The target of experiment [7] is T7, kinases of the scanMAX Kinase assay panel (Homo sapiens, UniProt Q9Y4K4).
T7 construct: purchased DiscoverX Co. (contract measurement) scanMAX Kinase assay panel
As to conditions: MAP4K5; 1 uM. A digest of the protocol:
as §1

Experiment [8] deals with T8, kinases of the scanMAX Kinase assay panel (Homo sapiens, UniProt Q92772).
T8 construct: purchased DiscoverX Co. (contract measurement) scanMAX Kinase assay panel
T8 sequence (Q92772 1-493): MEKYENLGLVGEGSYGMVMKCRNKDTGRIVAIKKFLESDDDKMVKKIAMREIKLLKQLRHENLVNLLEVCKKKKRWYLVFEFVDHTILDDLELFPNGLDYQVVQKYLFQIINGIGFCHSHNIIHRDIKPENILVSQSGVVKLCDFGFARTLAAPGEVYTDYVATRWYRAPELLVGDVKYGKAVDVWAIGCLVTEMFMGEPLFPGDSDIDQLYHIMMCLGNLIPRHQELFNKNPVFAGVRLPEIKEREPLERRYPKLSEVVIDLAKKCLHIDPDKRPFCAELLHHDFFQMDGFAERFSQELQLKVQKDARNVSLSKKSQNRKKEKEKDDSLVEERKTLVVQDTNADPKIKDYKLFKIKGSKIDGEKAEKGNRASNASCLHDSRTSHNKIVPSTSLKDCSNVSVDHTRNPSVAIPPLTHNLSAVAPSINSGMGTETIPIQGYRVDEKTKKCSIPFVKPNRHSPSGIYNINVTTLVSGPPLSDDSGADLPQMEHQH
As to conditions: CDKL2; 1 uM. In outline:
as §1

The target of experiment [9] is T9, kinases of the scanMAX Kinase assay panel (Homo sapiens, UniProt Q9Y6M4).
T9 construct: purchased DiscoverX Co. (contract measurement) scanMAX Kinase assay panel
As to conditions: CSNK1G3; 1 uM. A digest of the protocol: as §1

Experiment [10] concerns the target T10, kinases of the scanMAX Kinase assay panel (Homo sapiens, UniProt Q8N4C8).
T10 construct: purchased DiscoverX Co. (contract measurement) scanMAX Kinase assay panel
As to conditions: MINK; 1 uM. In outline: as §1

In experiment [11] the target is T11, kinases of the scanMAX Kinase assay panel (Homo sapiens, UniProt P49841).
T11 construct: purchased DiscoverX Co. (contract measurement) scanMAX Kinase assay panel
The conditions noted are these: GSK3B; 1 uM. In outline: as §1

The target in experiment [12] is T12, kinases of the scanMAX Kinase assay panel (Homo sapiens, UniProt Q16620).
T12 construct: purchased DiscoverX Co. (contract measurement) scanMAX Kinase assay panel
The conditions noted are these: kinase TRKB; 1 uM in DMSO. A digest of the protocol:
as §1

T12 sequence (Q16620 32-822): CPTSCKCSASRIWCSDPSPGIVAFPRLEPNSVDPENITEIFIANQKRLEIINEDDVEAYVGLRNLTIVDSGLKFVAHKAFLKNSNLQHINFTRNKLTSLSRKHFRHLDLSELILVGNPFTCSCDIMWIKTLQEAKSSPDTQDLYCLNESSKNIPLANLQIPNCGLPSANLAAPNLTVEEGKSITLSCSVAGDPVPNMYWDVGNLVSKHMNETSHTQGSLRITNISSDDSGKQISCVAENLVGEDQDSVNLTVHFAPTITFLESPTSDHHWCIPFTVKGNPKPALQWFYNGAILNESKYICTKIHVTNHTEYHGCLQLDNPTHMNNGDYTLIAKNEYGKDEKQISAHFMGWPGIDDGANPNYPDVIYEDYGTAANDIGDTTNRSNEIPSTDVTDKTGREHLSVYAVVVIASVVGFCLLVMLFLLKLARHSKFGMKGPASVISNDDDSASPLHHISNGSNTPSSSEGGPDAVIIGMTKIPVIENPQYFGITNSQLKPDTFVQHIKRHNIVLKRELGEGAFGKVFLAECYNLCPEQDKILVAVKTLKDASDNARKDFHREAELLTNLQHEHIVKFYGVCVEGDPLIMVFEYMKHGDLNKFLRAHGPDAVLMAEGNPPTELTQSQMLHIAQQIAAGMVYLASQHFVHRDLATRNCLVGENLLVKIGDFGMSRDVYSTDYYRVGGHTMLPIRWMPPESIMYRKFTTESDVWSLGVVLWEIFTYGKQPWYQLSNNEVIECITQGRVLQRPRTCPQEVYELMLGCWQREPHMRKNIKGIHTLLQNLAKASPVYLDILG
T6 sequence (P06213 28-1382): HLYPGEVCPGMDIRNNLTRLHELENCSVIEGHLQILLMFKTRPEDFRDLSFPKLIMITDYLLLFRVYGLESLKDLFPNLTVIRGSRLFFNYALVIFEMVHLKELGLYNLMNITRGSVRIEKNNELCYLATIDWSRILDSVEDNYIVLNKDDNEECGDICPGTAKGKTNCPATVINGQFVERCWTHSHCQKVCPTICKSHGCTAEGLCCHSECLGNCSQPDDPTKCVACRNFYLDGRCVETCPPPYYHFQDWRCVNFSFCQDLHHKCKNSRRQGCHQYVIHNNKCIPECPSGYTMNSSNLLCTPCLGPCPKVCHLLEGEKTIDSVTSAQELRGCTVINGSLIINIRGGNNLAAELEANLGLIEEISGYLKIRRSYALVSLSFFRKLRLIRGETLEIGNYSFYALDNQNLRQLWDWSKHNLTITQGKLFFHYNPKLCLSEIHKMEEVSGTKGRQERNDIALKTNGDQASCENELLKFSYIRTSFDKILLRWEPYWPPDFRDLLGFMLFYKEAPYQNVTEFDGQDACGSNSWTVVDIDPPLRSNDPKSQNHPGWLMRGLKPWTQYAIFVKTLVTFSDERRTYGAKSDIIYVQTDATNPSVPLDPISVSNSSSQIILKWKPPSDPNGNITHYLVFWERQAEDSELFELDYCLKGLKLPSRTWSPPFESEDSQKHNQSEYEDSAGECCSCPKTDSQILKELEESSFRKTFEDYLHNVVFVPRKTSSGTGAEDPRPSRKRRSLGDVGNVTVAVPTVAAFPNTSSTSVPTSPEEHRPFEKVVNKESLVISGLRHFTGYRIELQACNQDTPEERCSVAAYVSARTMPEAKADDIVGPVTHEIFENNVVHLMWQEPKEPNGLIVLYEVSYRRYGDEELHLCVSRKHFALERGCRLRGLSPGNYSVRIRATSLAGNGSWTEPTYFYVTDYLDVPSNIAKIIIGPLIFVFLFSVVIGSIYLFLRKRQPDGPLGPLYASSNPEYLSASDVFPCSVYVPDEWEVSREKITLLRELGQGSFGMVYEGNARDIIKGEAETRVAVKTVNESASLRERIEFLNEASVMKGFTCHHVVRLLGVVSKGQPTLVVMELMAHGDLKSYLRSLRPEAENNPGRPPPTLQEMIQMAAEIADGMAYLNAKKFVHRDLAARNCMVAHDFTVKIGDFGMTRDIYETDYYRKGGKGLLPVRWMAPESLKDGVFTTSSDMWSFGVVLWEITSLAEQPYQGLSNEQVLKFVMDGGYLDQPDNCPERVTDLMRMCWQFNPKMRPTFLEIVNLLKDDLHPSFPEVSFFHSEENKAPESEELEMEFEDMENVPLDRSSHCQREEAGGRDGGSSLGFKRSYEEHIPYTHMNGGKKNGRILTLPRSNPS
T9 sequence (Q9Y6M4 whole entry): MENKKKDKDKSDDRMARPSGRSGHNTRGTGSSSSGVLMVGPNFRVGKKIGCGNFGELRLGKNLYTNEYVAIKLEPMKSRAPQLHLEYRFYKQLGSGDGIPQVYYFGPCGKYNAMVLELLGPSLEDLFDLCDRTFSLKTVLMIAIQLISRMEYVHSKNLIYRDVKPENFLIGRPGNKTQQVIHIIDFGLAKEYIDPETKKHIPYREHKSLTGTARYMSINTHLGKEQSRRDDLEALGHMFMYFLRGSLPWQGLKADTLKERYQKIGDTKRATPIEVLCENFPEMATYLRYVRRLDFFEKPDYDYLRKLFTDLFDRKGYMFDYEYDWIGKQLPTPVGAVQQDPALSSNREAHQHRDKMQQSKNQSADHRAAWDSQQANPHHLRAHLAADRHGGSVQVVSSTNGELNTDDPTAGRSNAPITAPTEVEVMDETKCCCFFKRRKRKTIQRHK
T1 sequence (Q9BUB5 whole entry): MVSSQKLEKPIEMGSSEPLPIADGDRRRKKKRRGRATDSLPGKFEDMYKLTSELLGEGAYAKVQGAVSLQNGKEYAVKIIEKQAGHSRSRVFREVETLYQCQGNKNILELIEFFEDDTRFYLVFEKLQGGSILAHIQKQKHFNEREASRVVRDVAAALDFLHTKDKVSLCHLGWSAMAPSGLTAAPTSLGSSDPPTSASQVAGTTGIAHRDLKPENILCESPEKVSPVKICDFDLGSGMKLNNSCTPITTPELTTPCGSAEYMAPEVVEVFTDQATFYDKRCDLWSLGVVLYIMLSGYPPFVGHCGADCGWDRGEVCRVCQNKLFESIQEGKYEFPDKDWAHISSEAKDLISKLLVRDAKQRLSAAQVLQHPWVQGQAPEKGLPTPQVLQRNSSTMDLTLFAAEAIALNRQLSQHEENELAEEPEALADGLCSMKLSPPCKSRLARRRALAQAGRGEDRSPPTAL
T3 sequence (Q02779 whole entry): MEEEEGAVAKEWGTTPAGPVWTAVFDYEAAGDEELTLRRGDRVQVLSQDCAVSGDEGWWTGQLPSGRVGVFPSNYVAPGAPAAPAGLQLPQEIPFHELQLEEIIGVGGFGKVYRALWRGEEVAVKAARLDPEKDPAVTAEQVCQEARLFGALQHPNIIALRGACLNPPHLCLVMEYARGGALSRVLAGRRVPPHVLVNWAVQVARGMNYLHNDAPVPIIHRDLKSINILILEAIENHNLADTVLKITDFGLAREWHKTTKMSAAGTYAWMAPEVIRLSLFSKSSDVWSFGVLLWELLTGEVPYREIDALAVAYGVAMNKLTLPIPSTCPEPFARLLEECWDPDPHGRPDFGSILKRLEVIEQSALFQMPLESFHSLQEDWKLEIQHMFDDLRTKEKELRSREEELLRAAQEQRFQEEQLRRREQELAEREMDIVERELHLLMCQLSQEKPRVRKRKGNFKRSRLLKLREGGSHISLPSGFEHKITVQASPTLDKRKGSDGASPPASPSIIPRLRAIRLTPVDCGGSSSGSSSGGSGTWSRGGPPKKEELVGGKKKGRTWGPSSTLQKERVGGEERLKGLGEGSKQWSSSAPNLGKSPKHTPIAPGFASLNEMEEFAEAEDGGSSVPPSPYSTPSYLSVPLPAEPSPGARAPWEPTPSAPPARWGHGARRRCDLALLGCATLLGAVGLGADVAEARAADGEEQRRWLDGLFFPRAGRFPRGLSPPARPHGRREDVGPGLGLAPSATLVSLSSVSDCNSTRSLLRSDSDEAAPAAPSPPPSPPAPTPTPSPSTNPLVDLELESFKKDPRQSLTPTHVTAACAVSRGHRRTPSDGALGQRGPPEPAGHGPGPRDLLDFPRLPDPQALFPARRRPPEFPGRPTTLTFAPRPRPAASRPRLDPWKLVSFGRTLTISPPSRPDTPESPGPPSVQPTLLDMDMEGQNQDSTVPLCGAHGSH
T11 sequence (P49841 whole entry): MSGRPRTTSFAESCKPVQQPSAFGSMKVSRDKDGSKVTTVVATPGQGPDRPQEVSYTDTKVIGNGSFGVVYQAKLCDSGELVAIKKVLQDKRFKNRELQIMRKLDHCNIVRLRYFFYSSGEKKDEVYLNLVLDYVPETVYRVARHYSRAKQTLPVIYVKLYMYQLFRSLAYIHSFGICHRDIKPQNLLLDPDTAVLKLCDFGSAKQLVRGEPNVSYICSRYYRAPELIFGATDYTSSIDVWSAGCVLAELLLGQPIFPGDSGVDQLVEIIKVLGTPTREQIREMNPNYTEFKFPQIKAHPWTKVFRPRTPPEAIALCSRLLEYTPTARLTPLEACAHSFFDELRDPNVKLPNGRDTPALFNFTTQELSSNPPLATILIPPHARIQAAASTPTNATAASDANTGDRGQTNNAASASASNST

Regarding `CC1(Nc2nc(Nc3cnn([C@H]4CCN(C5COC5)C[C@@H]4F)c3Cl)nc3[nH]cc(C#N)c23)CC1` [Example 52, 2-((5-chloro-1-((3S,4S)-3-fluoro-1-(oxetane-3-yl)piperidine-4-yl)-1H-pyrazole-4-yl)amino)((1-methylcyclopropyl)amino)-7H-pyrrolo[2,3-d]pyrimidine-5-carbonitrile], the remaining binding at 1 µM in experiment [1] turned out to be 100%; in [2] it was 0%; in [3] it was 4.4%; in experiment [4], 100%; in [5], 49%; in experiment [6] it was 0.35%. Further, the remaining binding at 1 µM in [7] was 30%; in [8] it was 73%; in [9], 0.15%; in [10], 6.4%; in experiment [11], 50%; in [12] it was 7.5%.

On to `CCNc1nc(Nc2ccc(C(=O)N3CCC(N4CCOCC4)CC3)cc2OC)nc2[nH]cc(C(F)(F)F)c12` [Example 104, (4-((4-(ethylamino)-5-(trifluoromethyl)-7H-pyrrolo[2,3-d]pyrimidine-2-yl)amino)-3-methoxyphenyl)(4-morpholinopiperidine-1-yl)methanone], for which the remaining binding at 1 µM amounted to 100% in experiment [1]; 100% in experiment [2]; 96% in [3]; 100% in experiment [4]; 73% in experiment [5]; 7.1% in experiment [6]. The remaining binding at 1 µM in experiment [7] is 100%; in [8], 100%; in [9], 90%; in [10], 91%; in experiment [11], 83%; in experiment [12], 100%.

`CNc1nc(Nc2ccc(C(=O)N3CCOCC3)cc2OC)nc2[nH]cc(C#N)c12` [Example 1, 2-((2-methoxy-4-(morpholine-4-carbonyl)phenyl)amino)-4-(methylamino)-7H-pyrrolo[2,3-d]pyrimidine-5-carbonitrile]: the remaining binding at 1 µM amounted to 62% in experiment [1]; 64% in experiment [2]; 90% in [3]; 95% in experiment [4]; 98% in [5]; 48% in experiment [6]. For the same molecule, the remaining binding at 1 µM in experiment [7] was 89%; in [8], 99%; in experiment [9] it was 58%; in experiment [10], 50%; in experiment [11] it was 79%; in experiment [12], 61%.
